Data published in patent publication US9796733B2, “Imidazo-pyrazine derivatives useful as soluble guanylate cyclase activators” (Merck Sharp & Dohme Corp., priority 2014, dated 2017).

What was measured:
[1] = tested on: Spontaneously hypertensive rats (SHR); assay: Acute efficacy in spontaneously hypertensive rats (SHR): telemetry blood pressure lowering after a single oral dose; assay type: in vivo, rat
In short: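 Male SHR carrying aortic telemetry implants (14-day recovery) received a single oral gavage of compound or vehicle (10% transcutol/20% Cremophor/70% water). Conscious blood pressure was sampled 30 s every 10 min and averaged hourly; change was taken against the prior-day vehicle baseline, reported as maximum peak SBP decrease at a given PO dose (mpk).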

sGC α1/β1 heterodimer = molecular target: T1, sGC α1/β1 heterodimer (Homo sapiens, UniProt Q02108+Q02153); assay: Cell-based sGC functional assay (CASA assay): cGMP generation in CHO-K1/sGC cells, HTRF detection; conditions: for Emax: CHO-K1, percent activation relative to standard Compound A in CHO-K1/sGC cells, read-out: % Act.; for EC50: inflection point (IP) of cGMP generation in CHO-K1/sGC cells, 4P fit, activity expressed as percentage of Compound A
T1 construct: expressed in transfected cells; host or cells: CHO-K1 (clone #7, CHO-K1/sGC)
T1 sequence (Q02108 1-690): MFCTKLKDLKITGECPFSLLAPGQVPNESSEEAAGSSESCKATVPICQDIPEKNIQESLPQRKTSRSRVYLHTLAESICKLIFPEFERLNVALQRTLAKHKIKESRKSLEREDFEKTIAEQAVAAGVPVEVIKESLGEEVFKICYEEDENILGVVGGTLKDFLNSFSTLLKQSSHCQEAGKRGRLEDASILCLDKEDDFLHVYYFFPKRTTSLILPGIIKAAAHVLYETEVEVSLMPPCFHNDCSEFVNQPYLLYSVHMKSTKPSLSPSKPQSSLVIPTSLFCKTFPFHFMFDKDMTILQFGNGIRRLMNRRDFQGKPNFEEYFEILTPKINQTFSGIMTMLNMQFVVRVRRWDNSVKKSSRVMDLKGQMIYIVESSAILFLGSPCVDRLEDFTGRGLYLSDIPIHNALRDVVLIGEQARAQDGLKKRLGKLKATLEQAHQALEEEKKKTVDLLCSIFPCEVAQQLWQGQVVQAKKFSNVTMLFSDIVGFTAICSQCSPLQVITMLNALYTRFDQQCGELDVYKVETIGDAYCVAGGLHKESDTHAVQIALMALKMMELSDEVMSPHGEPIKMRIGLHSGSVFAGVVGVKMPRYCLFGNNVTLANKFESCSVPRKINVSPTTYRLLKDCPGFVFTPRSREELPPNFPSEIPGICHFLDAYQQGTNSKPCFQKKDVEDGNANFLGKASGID
T1 sequence (Q02153 1-619): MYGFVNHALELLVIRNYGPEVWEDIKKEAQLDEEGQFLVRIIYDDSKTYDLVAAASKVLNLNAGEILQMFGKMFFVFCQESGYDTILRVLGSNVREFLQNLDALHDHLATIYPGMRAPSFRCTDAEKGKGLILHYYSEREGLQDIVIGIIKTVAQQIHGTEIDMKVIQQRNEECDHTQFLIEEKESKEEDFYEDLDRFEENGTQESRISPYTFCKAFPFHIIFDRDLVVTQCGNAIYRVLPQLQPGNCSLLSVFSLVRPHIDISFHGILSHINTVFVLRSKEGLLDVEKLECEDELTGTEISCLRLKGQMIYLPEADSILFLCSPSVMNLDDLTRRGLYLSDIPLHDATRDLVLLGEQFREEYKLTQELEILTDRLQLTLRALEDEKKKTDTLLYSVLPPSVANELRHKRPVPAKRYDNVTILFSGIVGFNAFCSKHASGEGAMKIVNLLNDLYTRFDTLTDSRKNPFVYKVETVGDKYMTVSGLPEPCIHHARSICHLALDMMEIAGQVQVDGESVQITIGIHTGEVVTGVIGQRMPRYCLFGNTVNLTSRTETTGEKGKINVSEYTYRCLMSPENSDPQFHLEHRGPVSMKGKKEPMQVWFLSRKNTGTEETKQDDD
In short: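 Stable CHO-K1/sGC cells in EBSS buffer with 5 mM MgCl2, 0.05% BSA and 0.5 mM IBMX were incubated with compound (2.5% DMSO final) ±1 μM DETA-NO for 1 hr at 37° C. cGMP was measured by HTRF. Activation is expressed as % of reference HDA Compound A maximum, with IP and max fold induction from a 4P fit.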

Row | SMILES | Maximum peak decrease of systolic blood pressure (SBP) in SHR, Cat. ([1]; P.O. 3.0 mpk) | Emax (sGC α1/β1 heterodimer) [%] | EC50 (sGC α1/β1 heterodimer) [nM] | Maximum peak decrease of systolic blood pressure (SBP) in SHR, Cat. ([1]; P.O. 0.3 mpk) | Maximum peak decrease of systolic blood pressure (SBP) in SHR, Cat. ([1]; P.O. 1.0 mpk)
1 | CC1(c2ccc(F)cc2F)C(=O)Nc2nc(-c3cn4ccnc4cn3)nc(N)c21 (stereo not drawn) [Example 139A, 4-amino-5-(2,4-difluorophenyl)-2-(imidazo[1,2-a]pyrazin-6-yl)-5-methyl-5H-pyrrolo[2,3-d]pyrimidin-6(7H)-one] | C (Category C=SBP in SHRs>40 mmHg) | 118 | 222 |  | 
2 | CC1(c2ccc(Cl)c(F)c2)C(=O)Nc2nc(-c3cn4ccnc4cn3)nc(N)c21 (stereo not drawn) [Example 140B, 4-amino-5-(4-chloro-3-fluorophenyl)-2-(imidazo[1,2-a]pyrazin-6-yl)-5-methyl-5H-pyrrolo[2,3-d]pyrimidin-6(7H)-one] |  | 107 | 217 | B (Category B=SBP in SHRs 20-40 mmHg) | 
3 | CC1(c2ccc(F)c(F)c2)C(=O)Nc2nc(-c3cn4ccnc4cn3)nc(N)c21 (stereo not drawn) [Example 141B, 4-amino-5-(3,4-difluorophenyl)-2-(imidazo[1,2-a]pyrazin-6-yl)-5-methyl-5H-pyrrolo[2,3-d]pyrimidin-6(7H)-one] | B (Category B=SBP in SHRs 20-40 mmHg) | 112 | 236 |  | 
4 | CC1(c2ccc(C(F)(F)F)cc2)C(=O)Nc2nc(-c3cn4ccnc4cn3)nc(N)c21 (stereo not drawn) [Example 143B, 4-amino-2-(imidazo[1,2-a]pyrazin-6-yl)-5-methyl-5-(4-(trifluoromethyl)phenyl)-5H-pyrrolo[2,3-d]pyrimidin-6(7H)-one] | B (Category B=SBP in SHRs 20-40 mmHg) | 78 | 252 |  | 
5 | CC1(c2ccc(Cl)cc2)C(=O)Nc2nc(-c3cn4ccnc4cn3)nc(N)c21 (stereo not drawn) [Example 144A, 4-amino-5-(4-chlorophenyl)-2-(imidazo[1,2-a]pyrazin-6-yl)-5-methyl-5H-pyrrolo[2,3-d]pyrimidin-6(7H)-one] |  | 117 | 400 |  | B (Category B=SBP in SHRs 20-40 mmHg)
6 | CC1(c2ccc(F)cc2)C(=O)Nc2nc(-c3cn4cc(C(F)(F)F)nc4c(Cc4ccccc4)n3)nc(N)c21 (stereo not drawn) [Example 154A, 4-amino-2-(8-benzyl-2-(trifluoromethyl)imidazo[1,2-a]pyrazin-6-yl)-5-(4-fluorophenyl)-5-methyl-5H-pyrrolo[2,3-d]pyrimidin-6(7H)-one] |  | 120 | 85 |  | A (Category A=SBP in SHRs<20 mmHg)
7 | CC1(c2ccc(F)cc2)C(=O)Nc2nc(-c3cn4cc(C5CC5)nc4c(CCC(F)(F)C(F)(F)F)n3)nc(N)c21 (stereo not drawn) [Example 157A, 4-amino-2-(2-cyclopropyl-8-(3,3,4,4,4-pentafluorobutyl)imidazo [1,2-a]pyrazin-6-yl)-5-(4-fluorophenyl)-5-methyl-5H-pyrrolo[2,3-d]pyrimidin-6(7H)-one] | B (Category B=SBP in SHRs 20-40 mmHg) | 90 | 227 |  | 
8 | CCc1cn2cc(-c3nc(N)c4c(n3)NC(=O)C4(C)c3ccc(F)cc3)nc(CCC(F)(F)C(F)(F)F)c2n1 (stereo not drawn) [Example 159A, 4-amino-2-(2-ethyl-8-(3,3,4,4,4-pentafluorobutyl)imidazo [1,2-a]pyrazin-6-yl)-5-(4-fluorophenyl)-5-methyl-5H-pyrrolo[2,3-d]pyrimidin-6(7H)-one] | A (Category A=SBP in SHRs<20 mmHg) | 103 | 552 |  | 
9 | CCCCc1nc(-c2nc(N)c3c(n2)NC(=O)C3(C)c2ccc(C(F)(F)F)cn2)cn2cc(C)nc12 (stereo not drawn) [Example 166B, 4-amino-2-(8-butyl-2-methylimidazo[1,2-a]pyrazin-6-yl)-5-methyl-5-(5-(trifluoromethyl)pyridin-2-yl)-5H-pyrrolo[2,3-d]pyrimidin-6(7H)-one] |  | 94 | 120 |  | A (Category A=SBP in SHRs<20 mmHg)
10 | CCCCc1nc(-c2nc(N)c3c(n2)NC(=O)C3(C)c2ccc(Cl)cn2)cn2cc(C)nc12 (stereo not drawn) [Example 168A, 4-amino-2-(8-butyl-2-methylimidazo[1,2-a]pyrazin-6-yl)-5-(5-chloropyridin-2-yl)-5-methyl-5H-pyrrolo[2,3-d]pyrimidin-6(7H)-one] |  | 97 | 150 |  | B (Category B=SBP in SHRs 20-40 mmHg)
11 | Cc1cn2cc(-c3nc(N)c4c(n3)NC(=O)C4(C)c3ccc(F)cc3)nc(CCC(F)(F)C(F)(F)F)c2n1 (stereo not drawn) [Example 170A, 4-amino-5-(4-fluorophenyl)-5-methyl-2-(2-methyl-8-(3,3,4,4,4-pentafluorobutyl)imidazo [1,2-a]pyrazin-6-yl)-5H-pyrrolo[2,3-d]pyrimidin-6(7H)-one] |  | 104 | 57 |  | B (Category B=SBP in SHRs 20-40 mmHg)
12 | Cc1cnc2c(CCC(F)(F)C(F)(F)F)nc(-c3nc(N)c4c(n3)NC(=O)C4(C)c3ccc(F)cc3)cn12 (stereo not drawn) [Example 171A, 4-amino-5-(4-fluorophenyl)-5-methyl-2-(3-methyl-8-(3,3,4,4,4-pentafluorobutyl)imidazo [1,2-a]pyrazin-6-yl)-5H-pyrrolo[2,3-d]pyrimidin-6(7H)-one] |  | 126 | 80 |  | B (Category B=SBP in SHRs 20-40 mmHg)
13 | Cc1cn2cc(-c3nc(N)c4c(n3)NC(=O)C4(C)c3ccc(F)cn3)nc(CCC(F)(F)C(F)(F)F)c2n1 (stereo not drawn) [Example 172A, 4-amino-5-(5-fluoropyridin-2-yl)-5-methyl-2-(2-methyl-8-(3,3,4,4,4-pentafluorobutyl)imidazo [1,2-a]pyrazin-6-yl)-5H-pyrrolo[2,3-d]pyrimidin-6(7H)-one] | B (Category B=SBP in SHRs 20-40 mmHg) | 124 | 637 |  | 
14 | Cc1cnc2c(CCC(F)(F)C(F)(F)F)nc(-c3nc(N)c4c(n3)NC(=O)C4(C)c3ccc(F)cn3)cn12 (stereo not drawn) [Example 173B, 4-amino-5-(5-fluoropyridin-2-yl)-5-methyl-2-(3-methyl-8-(3,3,4,4,4-pentafluorobutyl)imidazo [1,2-a]pyrazin-6-yl)-5H-pyrrolo[2,3-d]pyrimidin-6(7H)-one] |  | 92 | 156 |  | B (Category B=SBP in SHRs 20-40 mmHg)
15 | COc1cn2cc(-c3nc(N)c4c(n3)NC(=O)C4(C)c3ccc(F)cc3)nc(CCC(F)(F)C(F)(F)F)c2n1 (stereo not drawn) [Example 174A, 4-amino-5-(4-fluorophenyl)-2-(2-methoxy-8-(3,3,4,4,4-pentafluorobutyl)imidazo [1,2-a]pyrazin-6-yl)-5-methyl-5H-pyrrolo[2,3-d]pyrimidin-6(7H)-one] |  | 139 | 107 |  | B (Category B=SBP in SHRs 20-40 mmHg)
16 | COc1cn2cc(-c3nc(N)c4c(n3)NC(=O)C4(C)c3ccc(F)cn3)nc(CCC(F)(F)C(F)(F)F)c2n1 (stereo not drawn) [Example 175B, 4-amino-5-(5-fluoropyridin-2-yl)-2-(2-methoxy-8-(3,3,4,4,4-pentafluorobutyl)imidazo [1,2-a]pyrazin-6-yl)-5-methyl-5H-pyrrolo[2,3-d]pyrimidin-6(7H)-one] |  | 88 | 501 |  | A (Category A=SBP in SHRs<20 mmHg)
